# Laboratory results: ChEMBL document CHEMBL3046332, “Ultrastructural effects of pyridalyl, an insecticidal agent, on epidermal cells of Spodoptera litura larvae and cultured insect cells Sf9” (J Pestic Sci, 2006)
# Activity calls are given as the source filed them. The calls are words filed in the database; no cut-off is given here.
# Assays:
# [1] = system: Sf9; assay: Ultrastructural effect on Spodoptera frugiperda (fall armyworm) sf9 cells assessed as enlarged mitochondria at 1 uM measured 4 to 6 hr by electron microscopy; assay type: functional, cell-based
# [2] = system: Sf9; assay: Ultrastructural effect on Spodoptera frugiperda (fall armyworm) sf9 cells assessed as dissociation of polysomes and nuclear swelling at 1 uM measured 4 to 6 hr by electron microscopy; assay type: functional, cell-based
# [3] = system: Spodoptera litura; assay: Insecticidal activity against Spodoptera litura larvae assessed as condensed nuclei in epidermal cell at 100 ng measured after 4 hr by ultrastructural analysis/electron microscopy; assay type: functional, organism-based
# [4] = system: Spodoptera litura; assay: Insecticidal activity against Spodoptera litura larvae assessed as dorsal aorta at 100 ng measured after 6 hr by ultrastructural analysis/electron microscopy; assay type: functional, organism-based
# [5] = system: Spodoptera litura; assay: Insecticidal activity against Spodoptera litura larvae assessed as midgut and ganglia at 100 ng measured after 6 hr by ultrastructural analysis/electron microscopy; assay type: functional, organism-based
# [6] = system: Spodoptera litura; assay: Insecticidal activity against Spodoptera litura larvae assessed intracytoplasmic ultrastructures of the epidermal cell at 100 ng measured after 2 hr by ultrastructural analysis/electron microscopy; assay type: functional, organism-based
# [7] = system: Sf9; assay: Ultrastructural effect on Spodoptera frugiperda (fall armyworm) sf9 cells assessed as swollen mitochondria at 1 uM measured for 8 hr by electron microscopy; assay type: functional, cell-based
# [8] = system: Sf9; assay: Ultrastructural effect on Spodoptera frugiperda (fall armyworm) sf9 cells assessed as decrease in mitochondrial number at 1 uM measured 4 to 6 hr by electron microscopy; assay type: functional, cell-based
# [9] = system: Spodoptera litura; assay: Insecticidal activity against Spodoptera litura larvae assessed as symptoms at 100 ng measured after 2 hr; assay type: functional, organism-based
# [10] = system: Spodoptera litura; assay: Insecticidal activity against Spodoptera litura larvae assessed as shorten microvillous projections epidermal cell at 100 ng measured after 6 hr by ultrastructural analysis/electron; assay type: functional, organism-based
# [11] = system: Sf9; assay: Ultrastructural effect on Spodoptera frugiperda (fall armyworm) sf9 cells assessed as low density matrix mitochondria at 1 uM measured 4 to 6 hr by electron microscopy; assay type: functional, cell-based
# [12] = system: Spodoptera litura; assay: Insecticidal activity against Spodoptera litura larvae assessed as diluted rough endoplasmic reticula in epidermal cell at 100 ng measured after 6 hr by ultrastructural analysis/electron microscopy; assay type: functional, organism-based
# [13] = system: Spodoptera litura; assay: Insecticidal activity against Spodoptera litura larvae assessed as enlarged mitochondria in epidermal cell at 100 ng measured after 4 hr by ultrastructural analysis/electron microscopy; assay type: functional, organism-based
# [14] = system: Spodoptera litura; assay: Insecticidal activity against Spodoptera litura larvae assessed as condensed and shrunken epidermal cell at 100 ng measured after 6 hr by ultrastructural analysis/electron microscopy; assay type: functional, organism-based
# [15] = system: Sf9; assay: Ultrastructural effect on Spodoptera frugiperda (fall armyworm) sf9 cells assessed as mitochondria with disarranged cristae at 1 uM measured 8 hr by electron microscopy; assay type: functional, cell-based
# [16] = system: Spodoptera litura; assay: Insecticidal activity against Spodoptera litura larvae assessed as muscular and fat tissues underlying the epidermis at 100 ng measured after 6 hr by ultrastructural analysis/electron microscopy; assay type: functional, organism-based; conditions: Adipose tissue
# [17] = system: Spodoptera litura; assay: Insecticidal activity against Spodoptera litura larvae assessed as diluted Golgi apparatus in epidermal cell at 100 ng measured after 6 hr by ultrastructural analysis/electron microscopy; assay type: functional, organism-based
# [18] = system: Spodoptera litura; assay: Insecticidal activity against Spodoptera litura larvae assessed as paralysis at 100 ng measured after 6 hr; assay type: functional, organism-based
# [19] = system: Spodoptera litura; assay: Insecticidal activity against Spodoptera litura larvae assessed as swollen mitochondria in epidermal cell at 100 ng measured after 6 hr by ultrastructural analysis/electron microscopy; assay type: functional, organism-based
# [20] = system: Spodoptera litura; assay: Insecticidal activity against Spodoptera litura larvae assessed as decrease in mobility at 100 ng measured after 4 hr; assay type: functional, organism-based
# [21] = system: Spodoptera litura; assay: Insecticidal activity against Spodoptera litura larvae assessed as epidermal cell nuclear change at 100 ng measured after 2 hr by ultrastructural analysis/electron microscopy; assay type: functional, organism-based
smiles,measurement,setting,value
FC(F)(F)c1ccc(OCCCOc2c(Cl)cc(OCC=C(Cl)Cl)cc2Cl)nc1,Activity,[1],Active
same,Activity,[2],Active
same,Activity,[3],Active
same,Activity,[4],inactive
same,Activity,[5],inactive
same,Activity,[6],inactive
same,Activity,[7],Active
same,Activity,[8],Active
same,Activity,[9],inactive
same,Activity,[10],Active
same,Activity,[11],Active
same,Activity,[12],Active
same,Activity,[13],Active
same,Activity,[14],Active
same,Activity,[15],Active
same,Activity,[16],inactive
same,Activity,[17],Active
same,Activity,[18],Active
same,Activity,[19],Active
same,Activity,[20],Active
same,Activity,[21],inactive
